From article PMC8775867, “The Systems of Naringenin with Solubilizers Expand Its Capability to Prevent Neurodegenerative Diseases” (International Journal of Molecular Sciences, 2022)
Converted amounts (≈) assume the structure as drawn.

Biological target: T1, tyrosinase
T1 construct: gene PPO3
Test: L-DOPA oxidation, absorbance […] nm
Format: biochemical
Settings: L-DOPA substrate, phosphate buffer pH 6.8, room temperature

IC50 | IC50 (NAR in DMSO) | Structure (SMILES)
5883 ± 23 µg/mL (≈ 31.3 mM) |  | O=C(O)CCCCCCCC(=O)O [azelaic acid]
 | 4615 ± 89 µg/mL (≈ 17 mM) | O=C1C[C@@H](c2ccc(O)cc2)Oc2cc(O)cc(O)c21 [naringenin]
